Results on 19 compounds are retold here after PubChem BioAssay AID248 (DTP/NCI, 2004).

This experiment has as its system L1210 leukemia ip in BDF1 mice, survival T/C. Kind of experiment: NCI In Vivo Anticancer Drug Screen. Data for tumor model L1210 Leukemia (intraperitoneal) in B6D2F1 (BDF1) mice. The following applies: endpoint: mean survival time, higher = longer survival. The gist of the method:
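Mice bearing the transplanted tumor received compound or vehicle. Survival of the treated group was divided by that of the vehicle-treated control group to give the ratio.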

The mark [1] stands for this setting: dose: 100.0 mg/kg/injection, schedule: Q04DX003 (ip), vehicle: Klucel (hydroxypropylcellulose) (HPC).
Where [2] appears, read: dose: 200.0 mg/kg/injection, schedule: Q04DX003 (ip), vehicle: Klucel (hydroxypropylcellulose) (HPC).
The mark [3] stands for this setting: dose: 400.0 mg/kg/injection, schedule: Q04DX003 (ip), vehicle: Klucel (hydroxypropylcellulose) (HPC).
Where [4] appears, read: dose: 100.0 mg/kg/injection, schedule: Q01DX001 (ip), vehicle: saline with Tween-80.
[5] abbreviates: dose: 200.0 mg/kg/injection, schedule: Q01DX001 (ip), vehicle: saline with Tween-80.
Setting [6] is: dose: 400.0 mg/kg/injection, schedule: Q01DX001 (ip), vehicle: saline with Tween-80.
[7] abbreviates: dose: 6.25 mg/kg/injection, schedule: Q01DX009 (ip), vehicle: Klucel (hydroxypropylcellulose) (HPC).
The mark [8] stands for this setting: dose: 12.5 mg/kg/injection, schedule: Q01DX009 (ip), vehicle: Klucel (hydroxypropylcellulose) (HPC).
Setting [9] is: dose: 25.0 mg/kg/injection, schedule: Q01DX001 (ip), vehicle: Klucel (hydroxypropylcellulose) (HPC).
The mark [10] stands for this setting: dose: 50.0 mg/kg/injection, schedule: Q01DX001 (ip), vehicle: Klucel (hydroxypropylcellulose) (HPC).
[11] abbreviates: dose: 100.0 mg/kg/injection, schedule: Q01DX009 (ip), vehicle: Klucel (hydroxypropylcellulose) (HPC).
[12] abbreviates: dose: 200.0 mg/kg/injection, schedule: Q01DX009 (ip), vehicle: Klucel (hydroxypropylcellulose) (HPC).
The mark [13] stands for this setting: dose: 100.0 mg/kg/injection, schedule: Q04DX003 (ip), vehicle: saline with Tween-80.
Setting [14] is: dose: 200.0 mg/kg/injection, schedule: Q04DX003 (ip), vehicle: saline with Tween-80.
Where [15] appears, read: dose: 400.0 mg/kg/injection, schedule: Q04DX003 (ip), vehicle: saline with Tween-80.
Where [16] appears, read: dose: 100.0 mg/kg/injection, schedule: Q01DX001 (ip), vehicle: Klucel (hydroxypropylcellulose) (HPC).

“And” between values parts separate entries of the source, which are not always exact repeats. Equal values may be shown once. Inconclusive results and toxic doses are left out.

Consider `CN(N=O)C(=O)NC1CCOCC1`, for which the T/C was 102 % of control (dose: 10.0 mg/kg/injection, schedule: Q01DX001 (ip), vehicle: saline); 103 % of control (dose: 20.0 mg/kg/injection, schedule: Q01DX001 (ip), vehicle: saline); 104 % of control (dose: 40.0 mg/kg/injection, schedule: Q01DX001 (ip), vehicle: saline); 109 % of control (dose: 60.0 mg/kg/injection, schedule: Q01DX001 (ip), vehicle: saline); 102 % of control (dose: 90.0 mg/kg/injection, schedule: Q01DX001 (ip), vehicle: saline); 119 % of control (dose: 187.0 mg/kg/injection, schedule: Q01DX001 (ip), vehicle: saline). The T/C reads like this: (dose: 250.0 mg/kg/injection, schedule: Q01DX001 (ip), vehicle: saline) 112 % of control; (dose: 500.0 mg/kg/injection, schedule: Q01DX001 (ip), vehicle: saline) 159 % of control; (dose: 750.0 mg/kg/injection, schedule: Q01DX001 (ip), vehicle: saline) 187 % of control.

In the case of `CC(=O)Oc1cc(-c2ccc3c(c2)C2(C)c4cc(OC(C)=O)c5ccccc5c4OC2(C)N3C)c(OC(C)=O)c2ccccc12` (stereo not drawn), the T/C runs as follows: (dose: 100.0 mg/kg/injection, schedule: Q01DX001 (ip), vehicle: other) 92 % of control; (dose: 200.0 mg/kg/injection, schedule: Q01DX001 (ip), vehicle: other) 88 % of control; (dose: 400.0 mg/kg/injection, schedule: Q01DX001 (ip), vehicle: other) 92 % of control.

As to `Clc1ccc(COCc2ccccc2COCc2ccc(Cl)cc2Cl)c(Cl)c1`, the T/C under setting [1] was 93 % of control, the T/C under setting [2] was 96 % of control and the T/C under setting [3] is 88 % of control.

Turning to `O=C1c2ccccc2-c2ccc(NC(=O)C(F)(F)F)cc21`, the T/C is, setting by setting: under setting [4], 92 % of control; under setting [5], 90 % of control; under setting [6], 92 % of control.

Take `C=CCCCCCCCCC(=O)Nc1ccc(Cl)cc1C(=O)c1ccccc1`: the T/C (dose: 100.0 mg/kg/injection, schedule: Q04DX002 (ip), vehicle: Klucel (hydroxypropylcellulose) (HPC)) was 95 % of control; the T/C (dose: 200.0 mg/kg/injection, schedule: Q04DX002 (ip), vehicle: Klucel (hydroxypropylcellulose) (HPC)) is 92 % of control; the T/C (dose: 400.0 mg/kg/injection, schedule: Q04DX002 (ip), vehicle: Klucel (hydroxypropylcellulose) (HPC)) was 89 % of control.

Turning to `NN1CCCCCC1`, the T/C is, setting by setting: (dose: 100.0 mg/kg/injection, schedule: Q04DX003 (ip), vehicle: saline) 102 % of control; (dose: 200.0 mg/kg/injection, schedule: Q04DX003 (ip), vehicle: saline) 97 % of control; (dose: 400.0 mg/kg/injection, schedule: Q04DX003 (ip), vehicle: saline) 94 % of control.

As for `O=C1C=C(O/C=C/C(C(F)(F)F)C(F)(F)F)C(=O)c2ccccc21`, the T/C is 100 % of control (dose: 6.25 mg/kg/injection, schedule: Q01DX001 (ip), vehicle: Klucel (hydroxypropylcellulose) (HPC)); 91 % of control under setting [7]; 101 % of control (dose: 12.5 mg/kg/injection, schedule: Q01DX001 (ip), vehicle: Klucel (hydroxypropylcellulose) (HPC)); 95 % of control under setting [8]; 103 % of control under setting [9]; 101 % of control under setting [10]. Besides, the T/C (dose: 75.0 mg/kg/injection, schedule: Q01DX001 (ip), vehicle: Klucel (hydroxypropylcellulose) (HPC)) was 96 % of control.

`O=c1[nH]cnc2c1cnn2-c1ccccc1`: the T/C was 104 % of control under setting [11]; 104 % of control under setting [12]; 112 % of control (dose: 400.0 mg/kg/injection, schedule: Q01DX009 (ip), vehicle: Klucel (hydroxypropylcellulose) (HPC)).

For `Cc1ccc(C)c(NC(=O)Oc2ccccc2F)c1`, the T/C runs as follows: under setting [11], 101 % of control; under setting [1], 98 % of control; under setting [12], 91 % of control; under setting [2], 113 % of control; under setting [3], 101 % of control.

In the case of `Cc1cc(=O)oc2c(OS(C)(=O)=O)c(OS(C)(=O)=O)ccc12`, the T/C under setting [7] is 100 % of control; the T/C under setting [8] was 100 % of control; the T/C (dose: 25.0 mg/kg/injection, schedule: Q01DX009 (ip), vehicle: Klucel (hydroxypropylcellulose) (HPC)) is 96 % of control and 100 % of control; the T/C (dose: 50.0 mg/kg/injection, schedule: Q01DX009 (ip), vehicle: Klucel (hydroxypropylcellulose) (HPC)) is 94 % of control and 88 % of control; the T/C under setting [11] was 97 % of control; the T/C under setting [12] was 105 % of control.

Turning to `COC(OC)c1nc(SC)[nH]c(=O)c1C`, the T/C (dose: 100.0 mg/kg/injection, schedule: Q01DX009 (ip), vehicle: saline with Tween-80) was 88 % of control; the T/C under setting [13] was 105 % of control; the T/C (dose: 200.0 mg/kg/injection, schedule: Q01DX009 (ip), vehicle: saline with Tween-80) was 89 % of control; the T/C under setting [14] was 116 % of control; the T/C (dose: 400.0 mg/kg/injection, schedule: Q01DX009 (ip), vehicle: saline with Tween-80) is 88 % of control; the T/C under setting [15] is 112 % of control.

Take `CC(=O)c1ccc2ccc3cccc4ccc1c2c34`: the T/C is 96 % of control (dose: 100.0 mg/kg/injection, schedule: Q04DX002 (ip), vehicle: gum acacia); 96 % of control (dose: 200.0 mg/kg/injection, schedule: Q04DX002 (ip), vehicle: gum acacia); 93 % of control (dose: 400.0 mg/kg/injection, schedule: Q04DX002 (ip), vehicle: gum acacia).

`COC1OC2COC(c3ccccc3)OC2C2C1N2C#N` (stereo not drawn): the T/C is, setting by setting: under setting [9], 100 % of control; under setting [10], 93 % of control; under setting [16], 100 % of control.

Regarding `CCOC(=O)C(c1ccsc1)C(C(=O)OCC)c1cccs1` (stereo not drawn), the T/C is 92 % of control under setting [4], 98 % of control under setting [5] and 92 % of control under setting [6].

As for `O=[N+]([O-])c1cccc(N(c2ccccc2)c2ccccc2)c1`, the T/C reads like this: (dose: 100.0 mg/kg/injection, schedule: Q01DX001 (ip), vehicle: carboxymethylcellulose (CMC)) 108 % of control; (dose: 200.0 mg/kg/injection, schedule: Q01DX001 (ip), vehicle: carboxymethylcellulose (CMC)) 108 % of control; (dose: 400.0 mg/kg/injection, schedule: Q01DX001 (ip), vehicle: carboxymethylcellulose (CMC)) 100 % of control.

`CCCC(NC(=O)C(C)NC(=O)OCc1ccccc1)C(=O)OC` (stereo not drawn): the T/C is 93 % of control under setting [13], 93 % of control under setting [14] and 86 % of control under setting [15].

For the compound `CC(=O)CC(=O)Nc1cc(C(F)(F)F)ccc1Cl`, the T/C is 97 % of control (dose: 100.0 mg/kg/injection, schedule: Q01DX001 (ip), vehicle: saline); 101 % of control (dose: 200.0 mg/kg/injection, schedule: Q01DX001 (ip), vehicle: saline); 101 % of control (dose: 400.0 mg/kg/injection, schedule: Q01DX001 (ip), vehicle: saline).

For `c1ccc2c(c1)C1CCCCC2c2ccccc21`, the T/C is, setting by setting: under setting [16], 102 % of control; (dose: 200.0 mg/kg/injection, schedule: Q01DX001 (ip), vehicle: Klucel (hydroxypropylcellulose) (HPC)) 97 % of control; (dose: 400.0 mg/kg/injection, schedule: Q01DX001 (ip), vehicle: Klucel (hydroxypropylcellulose) (HPC)) 100 % of control.

In the case of `O=[N+]([O-])c1ccc(-c2ccc(-c3ccccc3)cc2)cc1`, the T/C is, setting by setting: (dose: 100.0 mg/kg/injection, schedule: Q01DX001 (ip), vehicle: acetone) 98 % of control; (dose: 100.0 mg/kg/injection, schedule: Q04DX003 (ip), vehicle: acetone) 91 % of control; (dose: 200.0 mg/kg/injection, schedule: Q01DX001 (ip), vehicle: acetone) 95 % of control; (dose: 200.0 mg/kg/injection, schedule: Q04DX003 (ip), vehicle: acetone) 86 % of control; (dose: 400.0 mg/kg/injection, schedule: Q01DX001 (ip), vehicle: acetone) 92 % of control; (dose: 400.0 mg/kg/injection, schedule: Q04DX003 (ip), vehicle: acetone) 89 % of control.
